This is an account of results in patent publication US6323193A, “Bioavailable oral dosage form of cefuroxime axetil” (Ranbaxy Laboratories Limited, priority 1999, dated 2001).

Structures are written as SMILES. Where two headings read alike, the source gives them in different places.

Series [1] is described as follows: Behaviour of amorphous cefuroxime axetil in contact with water (conversion to crystalline form, gel formation). The class given is physicochemical. The note with it: formulation with sodium salt of citric acid.
For series [2] the following is noted: oral administration, cited from earlier work.
The conditions of series [3]: cited from earlier work.
Series [4] deals with gram-positive and gram-negative microorganisms. The note with it: cited from earlier work.

`CO/N=C(\C(=O)N[C@@H]1C(=O)N2C(C(=O)OC(C)OC(C)=O)=C(COC(N)=O)CS[C@H]12)c1ccco1` (stereo partly shown) [amorphous cefuroxime axetil]: in series [1], the “tendency to form a gel on addition of a sodium salt of citric acid” value is reported as “inhibits the tendency of amorphous cefuroxime axetil to form a gel”. Besides, the bioavailability entry in series [2] (listed as amorphous form of cefuroxime axetil) is “high bioavailability”; in series [2] (listed as highly pure amorphous cefuroxime axetil) it was “higher bioavailability than crystalline cefuroxime axetil”. Further, the gel formation result in series [3] (contact with water) was “forms a gel which prolongs the disintegration and retards the dissolution”. In series [3] (upon contact with water), the “conversion to the crystalline form” value is recorded as “gets converted to the crystalline form”.
Take `CO/N=C(\C(=O)N[C@@H]1C(=O)N2C(C(=O)OC(C)OC(C)=O)=C(COC(N)=O)CS[C@H]12)c1ccco1` (stereo partly shown) [Cefuroxime axetil, 1-acetoxyethyl ester of cefuroxime]: the spectrum of activity result in series [4] was “broad spectrum of activity”.
As for `CO/N=C(\C(=O)N[C@@H]1C(=O)N2C(C(=O)OC(C)OC(C)=O)=C(COC(N)=O)CS[C@H]12)c1ccco1` (stereo partly shown) [Crystalline cefuroxime axetil], the bioavailability result in series [2] is listed as “does not exhibit adequate bioavailability”.
